Test results taken from patent US5585491A, “Antibacterial agents” (Otsuka Pharmaceutical Co., Ltd., priority 1995, dated 1996).
In brackets after ≈: the same amount, converted by molar mass. Like-named read-outs stand apart in the source and are kept apart here.

Experiments:
Experiment in all cases: In vitro antibacterial activity, microtitration dilution method (MIC)
Format in all cases: cell-based
[1] = tested on: Pseudomonas aeruginosa UI-18
Source text: (§1) Agents & Chemoth., 6, 124 (1974), which is incorporated herein by reference.

[2] = tested on: Streptococcus pneumoniae SV-1
Source text: as §1

[3] = tested on: Klebsiella pneumoniae MGH-2
Source text: as §1

[4] = tested on: Staphylococcus aureus UC-76
Source text: as §1

[5] = tested on: Streptococcus faecalis MGH-2; conditions: Enterococcus faecalis
Source text: as §1

[6] = tested on: Proteus rettgeri M 1771; conditions: Providencia rettgeri
Source text: as §1

[7] = tested on: Enterobacter cloacae MA 2646
Source text: (§2) The compounds of the invention display antibacterial activity when tested by the microtitration dilution method as described in Heifetz, et al, Antimicr. Agents & Chemoth., 6, 124 (1974), which is incorporated herein by reference. By use of this method, the followed minimum inhibitory concentration values (MICs in μg/mL) were obtained for representative compounds of the invention.

[8] = tested on: Staphylococcus aureus H 228; conditions: H228; Staphylococcus aureus H 228, microtitration dilution; read-out: Minimal Inhibitory Concentration MIC
Source text: as §2

[9] = tested on: Escherichia coli Vogel; conditions: read-out: Minimal Inhibitory Concentration MIC
Source text: as §2

[10] = tested on: Streptococcus pyogenes C-203; conditions: C203; Streptococcus pyogenes C-203, microtitration dilution; read-out: Minimal Inhibitory Concentration MIC
Source text: as §2

[11] = UI18, Pseudomonas aeruginosa UI-18, microtitration dilution, read-out: Minimal Inhibitory Concentration MIC
[12] = SV1, Streptococcus pneumoniae SV-1, microtitration dilution, read-out: Minimal Inhibitory Concentration MIC
[13] = MGH2, Klebsiella pneumoniae MGH-2, microtitration dilution, read-out: Minimal Inhibitory Concentration MIC
[14] = UC76, Staphylococcus aureus UC-76, microtitration dilution, read-out: Minimal Inhibitory Concentration MIC
[15] = MGH2, Streptococcus faecalis MGH-2, microtitration dilution, read-out: Minimal Inhibitory Concentration MIC
[16] = M1771, read-out: Minimal Inhibitory Concentration MIC
[17] = Enterobacter cloacae, MA2646, read-out: Minimal Inhibitory Concentration MIC
[18] = Escherichia coli Vogel, microtitration dilution
[19] = MGH2, read-out: Minimal Inhibitory Concentration MIC
[20] = M1771, Proteus rettgeri M 1771, microtitration dilution, read-out: Minimal Inhibitory Concentration MIC
[21] = MA2646, Enterobacter cloacae MA 2646, microtitration dilution, read-out: Minimal Inhibitory Concentration MIC
[22] = Staphylococcus aureus, UC76, read-out: Minimal Inhibitory Concentration MIC

Row | Compound | MIC [1, 11] [µg/mL] | MIC [2, 12] [µg/mL] | MIC [3, 13] [µg/mL] | MIC [4, 14] [µg/mL] | MIC [5, 15] [µg/mL] | MIC [6, 16] [µg/mL] | MIC [7, 17] [µg/mL] | MIC [8] [µg/mL] | MIC [9, 18] [µg/mL] | MIC [10] [µg/mL] | MIC ([2]; Streptococcus pneumoniae, SV1, read-out: Minimal Inhibitory Concentration MIC) [µg/mL] | MIC [5, 19] [µg/mL] | MIC [6, 20] [µg/mL] | MIC [7, 21] [µg/mL] | MIC ([3]; Klebsiella pneumoniae, MGH2, read-out: Minimal Inhibitory Concentration MIC) [µg/mL] | MIC ([1]; Pseudomonas aeruginosa, UI18, read-out: Minimal Inhibitory Concentration MIC) [µg/mL] | MIC [4, 22] [µg/mL] | MIC ([9]; Escherichia coli) [µg/mL]
1 | Cc1c(F)c(N2CCC(N)C2)nc2c1c(=O)c(C(=O)O)cn2-c1ccc(F)cc1F (stereo not shown) [Ex. 22, 7-(3-Amino-1-pyrrolidinyl)-1-(2,4-difluorophenyl)-6-fluoro-1,4-dihydro-5-methyl-4-oxo-1,8-naphthyridine-3-carboxylic acid] | 0.2 (≈ 0.478 µM) | 0.05 (≈ 0.12 µM) | 0.05 (≈ 0.12 µM) | 0.013 (≈ 0.0311 µM) | 0.1 (≈ 0.239 µM) | 0.1 (≈ 0.239 µM) | 0.05 (≈ 0.12 µM) | 0.05 (≈ 0.12 µM) | 0.05 (≈ 0.12 µM) | 0.05 (≈ 0.12 µM) |  |  |  |  |  |  |  | 
2 | CCn1cc(C(=O)O)c(=O)c2c(C)c(F)c(N3CCC(N)C3)c(F)c21 (stereo not shown) [Ex. 13, 7-(3-Amino-1-pyrrolidinyl)-1-ethyl-6,8-difluoro-1,4-dihydro-5-methyl-4-oxo-3-quinolinecarboxylic acid] | 1.6 (≈ 4.55 µM) |  | 0.2 (≈ 0.569 µM) | 0.1 (≈ 0.285 µM) |  |  | 0.05 (≈ 0.142 µM) | 0.4 (≈ 1.14 µM) | 0.05 (≈ 0.142 µM) | 3.1 (≈ 8.82 µM) | 1.6 (≈ 4.55 µM) | 0.8 (≈ 2.28 µM) | 0.4 (≈ 1.14 µM) |  |  |  |  | 
3 | Cc1c(F)c(N2CC(C)NC(C)C2)cc2c1c(=O)c(C(=O)O)cn2-c1ccc(F)cc1F (stereo not shown) [Ex. 17b, 6-Fluoro-1-(2,4-difluorophenyl)-1,4-dihydro-5-methyl-7-(3,5-dimethyl-1-piperazinyl)-4-oxo-3-quinolinecarboxylic acid] | 1.6 (≈ 3.59 µM) | 0.05 (≈ 0.112 µM) | 0.8 (≈ 1.8 µM) | 0.05 (≈ 0.112 µM) |  |  |  | 0.1 (≈ 0.224 µM) | 0.2 (≈ 0.449 µM) | 0.1 (≈ 0.224 µM) |  | 0.8 (≈ 1.8 µM) | 1.6 (≈ 3.59 µM) | 0.4 (≈ 0.898 µM) |  |  |  | 
4 | Cc1c(F)c(N2CCC(N)C2)nc2c1c(=O)c(C(=O)O)cn2C1CC1 (stereo not shown) [Ex. 18, 7-(3-Amino-1-pyrrolidinyl)-1-cyclopropyl-6-fluoro-1,4-dihydro-5-methyl-4-oxo-1,8-naphthyridine-3-carboxylic acid] | 0.2 (≈ 0.577 µM) | 0.013 (≈ 0.0375 µM) | 0.025 (≈ 0.0722 µM) | 0.013 (≈ 0.0375 µM) | 0.05 (≈ 0.144 µM) | 0.1 (≈ 0.289 µM) |  | 0.25 (≈ 0.722 µM) | 0.013 (≈ 0.0375 µM) | 0.025 (≈ 0.0722 µM) |  |  |  | 0.013 (≈ 0.0375 µM) |  |  |  | 
5 | Cc1c(F)c(N2CCC(N)C2)cc2c1c(=O)c(C(=O)O)cn2-c1ccc(F)cc1F (stereo not shown) [Ex. 17c, 7-(3-Amino-1-pyrrolidinyl)-6-fluoro-1-(2,4-difluorophenyl)-1,4-dihydro-5-methyl-4-oxo-3-quinolinecarboxylic acid] | 0.8 (≈ 1.92 µM) | 0.025 (≈ 0.0599 µM) |  | 0.013 (≈ 0.0311 µM) | 0.1 (≈ 0.24 µM) |  | 0.05 (≈ 0.12 µM) | 0.05 (≈ 0.12 µM) | 0.05 (≈ 0.12 µM) | 0.05 (≈ 0.12 µM) |  |  | 0.2 (≈ 0.479 µM) |  | 0.1 (≈ 0.24 µM) |  |  | 
6 | Cc1c(F)c(N2CCC(N)C2)c(Cl)c2c1c(=O)c(C(=O)O)cn2C1CC1 (stereo not shown) [Ex. 11, 7-(3-Amino-1-pyrrolidinyl)-8-chloro-1-cyclopropyl-6-fluoro-1,4-dihydro-5-methyl-4-oxo-3-quinolinecarboxylic acid] | 0.2 (≈ 0.527 µM) | 0.025 (≈ 0.0658 µM) | 0.05 (≈ 0.132 µM) | 0.013 (≈ 0.0342 µM) | 0.05 (≈ 0.132 µM) |  | 0.05 (≈ 0.132 µM) | 0.025 (≈ 0.0658 µM) | 0.013 (≈ 0.0342 µM) | 0.05 (≈ 0.132 µM) |  |  | 0.05 (≈ 0.132 µM) |  |  |  |  | 
7 | Cc1c(F)c(N2CCNCC2)nc2c1c(=O)c(C(=O)O)cn2C1CC1 [Ex. 19, 1-Cyclopropyl-6-fluoro-1,4-dihydro-5-methyl-4-oxo-7-(1-piperazinyl)-1,8-naphthyridine-3-carboxylic acid] |  | 0.1 (≈ 0.289 µM) | 0.05 (≈ 0.144 µM) | 0.1 (≈ 0.289 µM) | 0.2 (≈ 0.577 µM) |  |  | 0.2 (≈ 0.577 µM) | 0.013 (≈ 0.0375 µM) | 0.4 (≈ 1.15 µM) |  |  | 0.2 (≈ 0.577 µM) | 0.025 (≈ 0.0722 µM) |  | 0.4 (≈ 1.15 µM) |  | 
8 | Cc1c(F)c(N2CC(C)NC(C)C2)c(F)c2c1c(=O)c(C(=O)O)cn2-c1ccc(F)cc1F (stereo not shown) [Ex. 14a, 6,8-Difluoro-1-(2,4-difluorophenyl)-1,4-dihydro-5-methyl-7-(3,5-dimethyl-1-piperazinyl)-4-oxo-3-quinolinecarboxylic acid] | 3.1 (≈ 6.69 µM) | 0.8 (≈ 1.73 µM) | 1.6 (≈ 3.45 µM) |  | 1.6 (≈ 3.45 µM) |  |  | 0.4 (≈ 0.863 µM) | 0.4 (≈ 0.863 µM) | 1.6 (≈ 3.45 µM) |  |  | 3.1 (≈ 6.69 µM) | 0.4 (≈ 0.863 µM) |  |  | 0.2 (≈ 0.432 µM) | 
9 | Cc1c(F)c(N2CCC(C)(CN)C2)cc2c1c(=O)c(C(=O)O)cn2-c1ccc(F)cc1F (stereo not shown) [Ex. 17e, 7-[3-(Aminomethyl)-3-methyl-1-pyrrolidinyl]-6-fluoro-1(2,4-difluorophenyl)-1,4-dihydro-5-methyl-4-oxo-3-quinolinecarboxylic acid] | 3.1 (≈ 6.96 µM) | 0.013 (≈ 0.0292 µM) | 0.8 (≈ 1.8 µM) | 0.013 (≈ 0.0292 µM) | 0.2 (≈ 0.449 µM) |  |  | 0.05 (≈ 0.112 µM) | 0.4 (≈ 0.898 µM) | 0.025 (≈ 0.0561 µM) |  |  | 0.8 (≈ 1.8 µM) | 0.4 (≈ 0.898 µM) |  |  |  | 
10 | CCn1cc(C(=O)O)c(=O)c2c(C)c(F)c(N3CCNCC3)c(F)c21 [Ex. 12, 1-Ethyl-6,8-difluoro-1,4-dihydro-5-methyl-4-oxo-7-(1-piperazinyl)-3-quinolinecarboxylic acid] | 1.6 (≈ 4.55 µM) | 6.3 (≈ 17.9 µM) | 0.2 (≈ 0.569 µM) |  | 3.1 (≈ 8.82 µM) |  | 0.05 (≈ 0.142 µM) | 0.8 (≈ 2.28 µM) |  | 12.5 (≈ 35.6 µM) |  |  | 0.4 (≈ 1.14 µM) |  |  |  | 0.2 (≈ 0.569 µM) | 0.05 (≈ 0.142 µM)
11 | Cc1c(F)c(N2CCNCC2)c(Cl)c2c1c(=O)c(C(=O)O)cn2C1CC1 [Ex. 10, 8-Chloro-1-cyclopropyl-6-fluoro-1,4-dihydro-5-methyl-4-oxo-7-(1-piperazinyl)-3-quinolinecarboxylic acid] | 0.2 (≈ 0.527 µM) | 0.1 (≈ 0.263 µM) | 0.1 (≈ 0.263 µM) | 0.025 (≈ 0.0658 µM) | 0.2 (≈ 0.527 µM) |  | 0.05 (≈ 0.132 µM) | 0.05 (≈ 0.132 µM) | 0.025 (≈ 0.0658 µM) | 0.2 (≈ 0.527 µM) |  |  | 0.2 (≈ 0.527 µM) |  |  |  |  | 
12 | Cc1c(F)c(N2CCNC(C)C2)cc2c1c(=O)c(C(=O)O)cn2-c1ccc(F)cc1F (stereo not shown) [Ex. 17a, 6-Fluoro-1-(2,4-difluorophenyl)-1,4-dihydro-5-methyl-7-(3-methyl-1-piperazinyl)-4-oxo-3-quinolinecarboxylic acid] | 1.6 (≈ 3.71 µM) | 0.05 (≈ 0.116 µM) | 0.4 (≈ 0.927 µM) | 0.025 (≈ 0.0579 µM) | 0.4 (≈ 0.927 µM) |  |  | 0.1 (≈ 0.232 µM) | 0.1 (≈ 0.232 µM) | 0.1 (≈ 0.232 µM) |  |  | 0.8 (≈ 1.85 µM) | 0.2 (≈ 0.464 µM) |  |  |  | 
13 | Cc1c(F)c(N2CCC(C)(CN)C2)cc2c1c(=O)c(C(=O)O)cn2C1CC1 (stereo not shown) [Ex. 9, 7-[3-(Aminomethyl)-3-methyl-1-pyrrolidinyl]-1-cyclopropyl-6-fluoro-1,4-dihydro-5-methyl-4-oxo-3-quinolinecarboxylic acid] | 1.6 (≈ 4.28 µM) | 0.006 (≈ 0.0161 µM) | 0.4 (≈ 1.07 µM) | 0.006 (≈ 0.0161 µM) | 0.1 (≈ 0.268 µM) |  |  | 0.025 (≈ 0.0669 µM) | 0.1 (≈ 0.268 µM) | 0.013 (≈ 0.0348 µM) |  |  | 0.8 (≈ 2.14 µM) | 0.1 (≈ 0.268 µM) |  |  |  | 
